Experimental data as given in US5473055A, “Polymer-bound paclitaxel derivatives” (Farmitalia Carlo Erba S.r.l., priority 1992, dated 1995).
Where two headings read alike, the source gives them in different places.

Key:
[1] = TOX determination in tumor-bearing mice; assay type: in vivo, C57B16 female mice; details: day 1, 5, 9
Method: (§1) The compound of example 6 was injected intravenously. Both compounds were administered at day 1, 5, 9 after tumor implantation.
TOX: number of mice which died for toxicity.
TOX determination was made when mice died before the control or when significant body weight loss and/or spleen and or/or liver size reduction were observed.

[2] = tested on: B16-F10 murine melanoma cells; test: In vitro drug sensitivity assay; assay type: cell-based; details: 72 hrs incubation, cell counting, read-out: IC50 (dose causing 50% inhibition cell growth)
Method: Exponentially growing B16-F10 murine melanoma cells were seeded (2×10^4 /ml) in RPMI 1640 medium were supplemented with 10% heat-inactivated fetal calf serum and 2 mM glutamine in 24 well-plates (Costar). Scalar concentrations of tested compounds were added immediately after seeding. The inhibition of cell growth was evaluated by counting cells with a coulter counter after 72 hrs incubation. For each tested compound concentration triplicate cultures were used. The antiproliferative activity of the tested compounds was calculated from dose-response curves and espressed as IC50 (dose causing 50% inhibition cell growth in treated cultures relative to untreated controls).

B16 F10 murine melanoma = test: In vivo antitumor activity against B16 F10 murine melanoma; parameters: species or system C57B16 female mice
Method: The copolymer-paclitaxel prepared in Example 6 was tested in vivo against B16 F10 murine melanoma in comparison with paclitaxel.
C57B16 female mice were obtained from Charles River Italy.
Animals were 8 to 10 weeks old at the beginning of the experiment.
The murine melanoma B16F10 was used. A suspension of 10^5 tumor cells in 0.2 ml was injected subcutaneously in the flank of mice.
Tumor size was measured with caliper and tumor weight was calculated with the formula: [formula]
as §1
The dose of the polymer-conjugate is referred to the paclitaxel content.

Calf brain tubulin = test: Microtubule assembly and disassembly assay; assay type: biochemical; details: percentage of repolymerisation induced after CaCl2 depolymerisation
Method: Calf brain tubulin was prepared by two cycles of assembly-disassembly (Shelanski M. L. Gaskin F. and Cantor C. R., Proc. Natl. Acad. Sci. U.S.A. 70, 765-768, 1973) and stored in liquid nitrogen in MAB (0.1M MES, 2.5 mM EGTA, 0.5 mM MgSO4, 0.1 mM EDTA, 0.1 mM DTT pH 6.4).
All the experiments were carried out on protein stored for less than 4 weeks.
Before each experiment, the tubulin was kept 30 min at 4° C.
Assembly was monitored by the method of Gaskin et al (Gaskin F., Cantor C. R. Shelanski M. L. J. Molec. Biol 89, 737-758, 1974). The cuvette (1 cm path) containing tubulin (1 mg/ml) and 1 mM GTP was shifted to 37° C. and continous turbidity measurements were made at 340 nm on Perkin-Elmer 557 Double Wavelength Double Beam Spectrophotometer equipped with an automatic recorder and a termostatically regulated sample chamber.
After 30 minutes 4 mM CaCl2 was added and depolymerisation was measured for 10 minutes as decreased turbidity. At regular intervals of 15 minutes scalar doses of the tested compounds were added and variations in the turbidity were monitored. Data are espressed as percentage of ripolymerisation induced by the tested compounds.

Row | Compound | IC50 ([2]; Mus musculus) | Tubulin Assembly % (Calf brain tubulin; 0.5 μM) | Tubulin Assembly % (Calf brain tubulin; 5 μM) | IC50 [2] | also measured
1 | CC(=O)O[C@H]1C(=O)[C@@]2(C)[C@H]([C@H](OC(=O)c3ccccc3)[C@]3(O)C[C@H](OC(=O)[C@H](O)[C@@H](NC(=O)c4ccccc4)c4ccccc4)C(C)=C1C3(C)C)[C@]1(OC(C)=O)CO[C@@H]1C[C@@H]2O [Paclitaxel] | 39 µM | 41% | 96% |  | Tox: number of mice which died for toxicity ([1]; 14.6 mg/Kg intraperitoneally): 0/10; Tox: number of mice which died for toxicity ([1]; 22 mg/Kg intraperitoneally): 0/10; Tox: number of mice which died for toxicity ([1]; 33 mg/Kg intraperitoneally): 1/7; Appearance of the solution (Cremophor EL 50% and ethanol 50%, diluted with glucose 5% solution): slightly hazy and precipitates formation was observed after short time; Tumor Inhibition (%) (B16 F10 murine melanoma; 14.6 mg/Kg intraperitoneally, day 1, 5, 9 after tumor implantation): 53%; Tumor Inhibition (%) (B16 F10 murine melanoma; 22 mg/Kg intraperitoneally, day 1, 5, 9): 38%; Tumor Inhibition (%) (B16 F10 murine melanoma; 33 mg/Kg intraperitoneally, day 1, 5, 9): 92%
2 | CC(=O)OC1C(=O)C2(C)C(OC(=O)CCN)CC3OCC3(OC(C)=O)C2C(OC(=O)c2ccccc2)C2(O)CC(OC(=O)C(O)C(NC(=O)c3ccccc3)c3ccccc3)C(C)=C1C2(C)C (stereo not shown) [Example 9, 7-(βalanyl)paclitaxel] | 47 µM | 79% | 145% |  | 
3 | Copolymer of 1-methacryloylamino-2-hydroxypropane, 1 (methacryloyl-glycyl-phenylalanyl-leucyl-glycyl)amino-2-hydroxypropane and 2'(methacryloyl-glycyl-phenylalanyl-leucyl-glycyl)paclitaxel [Example 1] |  | 0% | 15% | 19 µM | 
4 | Copolymer of 1-methacryloylamino-2-hydroxypropane, 1-(methacryloyl-glycyl)amino-2-hydroxypropane and 2'(methacryloyl-glycyl-phenylalanyl-leucyl-glycyl)paclitaxel [Example 4] |  | 0% | 10% | 11 µM | 
5 | Copolymer of 1-methacryloylamino-2-hydroxypropane,1-(methacryloyl-glycyl-phenylanyl-leucyl-glycyl)amino-2hydroxypropane and 2(methacryloyl-glycyl-phenylalanyl-leucyl-glycyl-βalanyl)paclitaxel [Example 6] |  | 0% | 10% | 51 µM | Tox: number of mice which died for toxicity ([1]; 14.6 mg/Kg (paclitaxel content) intravenously): 0/9; Tox: number of mice which died for toxicity ([1]; 22 mg/Kg (paclitaxel content) intravenously): 0/10; Dissolution in glucose 5% (glucose 5%): easily dissolved; Time the resulting solution was clear (solution in glucose 5%): more than 2 hours; Tumor Inhibition (%) (B16 F10 murine melanoma; 14.6 mg/Kg (paclitaxel content) intravenously, day 1, 5, 9): 77%; Tumor Inhibition (%) (B16 F10 murine melanoma; 22 mg/Kg (paclitaxel content) intravenously, day 1, 5, 9): 79%
6 | CC(=O)OC1C(=O)C2(C)C(O)CC3OCC3(OC(C)=O)C2C(OC(=O)c2ccccc2)C2(O)CC(OC(=O)C(OC(=O)CNC(=O)C(CC(C)C)NC(=O)C(N)Cc3ccccc3)C(NC(=O)c3ccccc3)c3ccccc3)C(C)=C1C2(C)C (stereo not shown) [Example 3, 2'(phenylalanyl-leucyl-glycyl)paclitaxel] | 23 µM | 46% | 86% |  | 
